Literature values as cited in US20230167121A1, “SUBSTITUTED {1,2,4,} TRIAZOLO{1,5-A} PYRIMIDINE COMPOUNDS AND USE IN STABILIZING MICROTUBULES” (THE TRUSTEES OF THE UNIVERSITY OF PENNSYLVANIA, priority 2020, published 2023).

Tested on: MTs
Details: cited from earlier work

CO[C@H]1C[C@H]2CC[C@@H](C1)N2c1c(-c2c(F)cc(F)cc2F)c(Cl)nc2ncnn12 [Compound 2]
binding to MTs / unpolymerized tubulin heterodimers: binds exclusively to MTs and not to unpolymerized tubulin heterodimers
